Data taken from paper doi:10.1101/2025.08.13.670122v1 (bioRxiv, 2025).
Peptide text beside a SMILES is read from it.

Experiments:
AT1R [1] = molecular target: T1, AT1R (Homo sapiens, UniProt P30556); experiment: Gαq activation BRET (GABY sensor) in HEK293 cells expressing AT1R; type: cell-based; design: expressed in transfected cells; host or cells: HEK293 cells, transient PEI transfection; settings: for Emax Gαq (% AngII): HEK293/AT1R, GABY BRET sensor, response of the ligand at 10 μM, normalised to AngII; for EC50: HEK293 cells transiently expressing human AT1R, Gαq-RlucII/Gβ1/Gγ1-GFP10 (GABY) BRET sensor, BRET read 10 min after ligand, mean ± SEM of at least three to five independent experiments
T1 sequence (P30556 1-359): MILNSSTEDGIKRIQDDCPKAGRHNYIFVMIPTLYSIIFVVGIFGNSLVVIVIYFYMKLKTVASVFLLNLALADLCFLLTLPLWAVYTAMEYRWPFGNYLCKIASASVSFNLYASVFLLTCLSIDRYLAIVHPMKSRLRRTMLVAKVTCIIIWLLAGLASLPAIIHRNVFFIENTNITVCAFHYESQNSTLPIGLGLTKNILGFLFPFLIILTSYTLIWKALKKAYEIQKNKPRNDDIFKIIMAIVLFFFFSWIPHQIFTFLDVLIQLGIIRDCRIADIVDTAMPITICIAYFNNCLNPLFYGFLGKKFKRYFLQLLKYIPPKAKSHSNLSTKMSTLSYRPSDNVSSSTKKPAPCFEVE
Excerpt: (§1) We utilized a clonal cell line HEK293, referred to hereafter as HEK293 cells, which has been previously described.[7],[8] As a gracious gift from A. Inoue (Tohoku University, Sendai, Miyagi, Japan), CRISPR Gαq/11 and Gα12/13 knockout cell lines (ΔGq/11 and ΔG12/13, respectively), were derived as previously explained.[48] In brief, a CRISPR-Cas9 system was used to target either GNAQ and GNA11 or GNA12 and GNA13 genes in HEK293T cells simultaneously to generate the Gαq/11 and Gα12/13 knockout cell lines. For the production of adenovirus, we utilized HEK293A cells. All cells were grown in DMEM supplemented with 10% FBS and Penicillin-Streptomycin-L-Glutamine (10000 IU penicillin, 10000 µg/mL Streptomycin, 200 mM L-Glutamine) at 37°C in T175 flasks under a 5% CO2 humidified chamber. Periodic testing was carried out for mycoplasma contamination (ABM™, Mycoplasma PCR Detection kit). For all biosensors used, cells underwent transfection with the PEI reagent, employing a PEI:DNA ratio of 3:1. For the Gαq biosensor, HEK293 cells were transfected with the plasmids coding for Gαq-RLucII (120 ng), Gβ1 (3000 ng), Gγ1-GFP10 (3000 ng), human AT1 (3000 ng) and Salmon sperm DNA (SSD) (880 ng). For the β-arrestin2 recruitment assay, HEK293 cells were transfected with the plasmids coding for 120 ng β-arrestin-2-RLucII, 3000 ng AT1, 3000 ng rGFP-CAAX, and 3880 ng SSD. For the measurement of PKC, HEK293 cells were transfected with 3000 ng AT1, 600 ng PKC-c1b, and 6400 ng SSD. […] 100 µL of the cell/DNA mixture was added to white 96-well plates and incubated at 37°C at 5% CO2 for 48 h. For the Rho assay, ΔG12/13 cells were seeded at a density of 9,000 cells per well in poly-ornithine-coated white 96-well plates and transfected the following day. In brief, 1 μg of total DNA in 100 μL of PBS was mixed with 100 μL of PBS containing 3 μL of 1 mg/mL PEI. For Rho signaling, 150 ng of AT1R DNA with 25 ng of PKN-RBD-RlucII [8], and 100 ng of rGFP-CAAX were used. Empty pcDNA was used to reach 1 µg of the total DNA amount in 100 μL of PBS. The DNA was then mixed with 100 μL of PBS containing 3 μL of 1 mg/mL PEI. After a 20-min incubation, the DNA/PEI complexes were dispensed into cells in 96-well plates (15 µL/well), and the experiment was carried out 48 h post-transfection.
(§2) On the day of the experiment, each well was washed with 80 µL of Tyrode’s buffer (140 mM NaCl, 2.7 mM KCl, 1 mM CaCl2, 12 mM NaHCO3, 5.6 mM D-glucose, 0.5 mM MgCl2, 0.37 mM NaH2PO4, 25 mM Hepes (pH 7.4)). This was followed by incubation for 1 h in Tyrode’s buffer at room temperature. For the Gαq, β-arrestin-2, and PKC biosensors used in HEK293 cells, coelenterazine 400A (at a final concentration of 5 μM) was added 10 min before stimulation. Cells were then stimulated with increasing doses of the indicated ligand, and BRET signals were measured using a Tristar2 (Berthold) microplate reader 10 min later. For the PKC and Rho biosensors in VSMCs, and the Rho biosensor in ΔG12/13 cells, cells were similarly stimulated with ligands for 1 min, 1 min 30 s, and 3 min, respectively, before BRET measurement. […] BRET signals were then measured using a Synergy2 (BioTek) microplate reader. The applied filter set was 410/80 nm and 515/30 nm, designed to detect the light emissions of RlucII (Renilla luciferase) (donor) and rGFP (acceptor), respectively.

AT1R [2] = molecular target: T1, AT1R; experiment: β-arrestin2 recruitment BRET (β-arrestin2-RLucII/rGFP-CAAX) in HEK293 cells expressing AT1R; type: cell-based; design: expressed in transfected cells; host or cells: HEK293 cells, transient PEI transfection; settings: for Emax βarr2 (% AngII): HEK293/AT1R, β-arrestin2 BRET, response of the ligand at 10 μM, normalised to AngII; for EC50: HEK293 cells transiently expressing AT1R, β-arrestin2-RLucII/rGFP-CAAX BRET, read 10 min after ligand, mean ± SEM of at least three to five independent experiments, SEM, read-out: EC50 βarr2
Excerpt: as §1, §2

| SMILES | Emax Gαq (% AngII) (AT1R [1]) | EC50 (AT1R [1]; SEM) [nM] | Emax βarr2 (% AngII) (AT1R [2]) | EC50 (AT1R [2]) [nM] | EC50 (AT1R [1]) [nM] |
| --- | --- | --- | --- | --- | --- |
| CC[C@H](C)[C@H](NC(=O)[C@H](Cc1ccc(O)cc1)NC(=O)[C@@H](NC(=O)[C@H](CCCNC(=N)N)NC(=O)[C@@H](N)CC(=O)O)C(C)C)C(=O)N[C@@H](Cc1c[nH]cn1)C(=O)N1CCC[C@H]1C(=O)N[C@@H](Cc1cccc(O)c1)C(=O)O [24b] | 49 | 4.6 ± 3 | 93 | 2.8 ± 0.6 |  |
| CC[C@H](C)[C@H](NC(=O)[C@H](Cc1ccc(O)cc1)NC(=O)[C@@H](NC(=O)[C@H](CCCN=C(N)N)NC(=O)[C@@H](N)CC(=O)O)C(C)C)C(=O)N[C@@H](Cc1c[nH]cn1)C(=O)N1CCC[C@H]1C(=O)N[C@@H](Cc1ccc(O)cc1)C(=O)O [24c] (H-DRVYIHPY-OH) |  | 4.2 ± 1.3 |  | 2.6 ± 0.8 |  |
| CC[C@H](C)[C@H](NC(=O)[C@H](Cc1ccc(O)cc1)NC(=O)[C@@H](NC(=O)[C@H](CCCNC(=N)N)NC(=O)[C@@H](N)CC(=O)O)C(C)C)C(=O)N[C@@H](Cc1c[nH]cn1)C(=O)N1CCC[C@H]1C(=O)N[C@@H](Cc1ccc(O)cc1)C(=O)O [24c] (H-DRVYIHPY-OH) | 89 |  | 105 |  |  |
| CCCC[C@H](NC(=O)[C@@H]1CCCN1C(=O)[C@H](Cc1c[nH]cn1)NC(=O)[C@@H](NC(=O)[C@H](Cc1ccc(O)cc1)NC(=O)[C@@H](NC(=O)[C@H](CCCNC(=N)N)NC(=O)[C@@H](N)CC(=O)O)C(C)C)[C@@H](C)CC)C(=O)O [compound 2] | 36 | 3 ± 3.6 | 92 | 0.86 ± 0.16 |  |
| CC[C@H](C)[C@H](NC(=O)[C@H](Cc1ccc(O)cc1)NC(=O)[C@@H](NC(=O)[C@H](CCCNC(=N)N)NC(=O)[C@@H](N)CC(=O)O)C(C)C)C(=O)N[C@@H](Cc1c[nH]cn1)C(=O)N1CCC[C@H]1C(=O)N[C@H](C(=O)O)C(C)(C)C [compound 3] | 19 | 0.36 ± 0.84 | 81 | 2.3 ± 0.4 |  |
| CC[C@H](C)[C@H](NC(=O)[C@H](Cc1ccc(O)cc1)NC(=O)[C@@H](NC(=O)[C@H](CCCNC(=N)N)NC(=O)[C@@H](N)CC(=O)O)C(C)C)C(=O)N[C@@H](Cc1c[nH]cn1)C(=O)N1CCC[C@H]1C(=O)N[C@@H](CC1CCCCC1)C(=O)O [compound 4] | 52 | 5.5 ± 3.9 | 95 | 1.4 ± 0.2 |  |
| CC[C@H](C)[C@H](NC(=O)[C@H](Cc1ccc(O)cc1)NC(=O)[C@@H](NC(=O)[C@H](CCCNC(=N)N)NC(=O)[C@@H](N)CC(=O)O)C(C)C)C(=O)N[C@@H](Cc1c[nH]cn1)C(=O)N1CCC[C@H]1C(=O)N[C@@H](CCCN)C(=O)O [compound 5] |  |  | 45 | 4560 ± 3880 | > 10000 |
| CC[C@H](C)[C@H](NC(=O)[C@H](Cc1ccc(O)cc1)NC(=O)[C@@H](NC(=O)[C@H](CCCNC(=N)N)NC(=O)[C@@H](N)CC(=O)O)C(C)C)C(=O)N[C@@H](Cc1c[nH]cn1)C(=O)N1CCC[C@H]1C(=O)N[C@@H](CCC(=O)O)C(=O)O [compound 6] (H-DRVYIHPE-OH; N-terminus assumed) |  |  | 63 | 957 ± 111 | > 10000 |
| CC[C@H](C)[C@H](NC(=O)[C@H](Cc1ccc(O)cc1)NC(=O)[C@@H](NC(=O)[C@H](CCCNC(=N)N)NC(=O)[C@@H](N)CC(=O)O)C(C)C)C(=O)N[C@@H](Cc1c[nH]cn1)C(=O)N1CCC[C@H]1C(=O)N[C@@H](CCC(N)=O)C(=O)O [compound 7] (H-DRVYIHPQ-OH; N-terminus assumed) |  |  | 56 | 158 ± 20 | > 10000 |
| CC[C@H](C)[C@H](NC(=O)[C@H](Cc1ccc(O)cc1)NC(=O)[C@@H](NC(=O)[C@H](CCCNC(=N)N)NC(=O)[C@@H](N)CC(=O)O)C(C)C)C(=O)N[C@@H](Cc1c[nH]cn1)C(=O)N1CCC[C@H]1C(=O)N[C@@H](Cc1cccc2ccccc12)C(=O)O [compound 8] | 61 | 8.3 ± 5.1 | 101 | 2.1 ± 0.4 |  |
| CC[C@H](C)[C@H](NC(=O)[C@H](Cc1ccc(O)cc1)NC(=O)[C@@H](NC(=O)[C@H](CCCNC(=N)N)NC(=O)[C@@H](N)CC(=O)O)C(C)C)C(=O)N[C@@H](Cc1c[nH]cn1)C(=O)N1CCC[C@H]1C(=O)N[C@@H](Cc1ccc2ccccc2c1)C(=O)O [compound 9] | 69 | 3.9 ± 1.9 | 97 | 1 ± 0.3 |  |
| C=CCOc1ccc(C[C@H](NC(=O)[C@@H]2CCCN2C(=O)[C@H](Cc2c[nH]cn2)NC(=O)[C@@H](NC(=O)[C@H](Cc2ccc(O)cc2)NC(=O)[C@@H](NC(=O)[C@H](CCCNC(=N)N)NC(=O)[C@@H](N)CC(=O)O)C(C)C)[C@@H](C)CC)C(=O)O)cc1 [compound 10] | 48 | 17 ± 10 | 100 | 7.4 ± 1.9 |  |
| CC[C@H](C)[C@H](NC(=O)[C@H](Cc1ccc(O)cc1)NC(=O)[C@@H](NC(=O)[C@H](CCCNC(=N)N)NC(=O)[C@@H](N)CC(=O)O)C(C)C)C(=O)N[C@@H](Cc1c[nH]cn1)C(=O)N1CCC[C@H]1C(=O)N[C@@H](Cc1ccc(-c2ccccc2)cc1)C(=O)O [compound 13] | 45 | 16 ± 12 | 98 | 15 ± 4 |  |
